Experiments:
anticancer animal models = test system: anticancer animal models; set-up: method as in doi:10.1158/1538-7445.am2022-1399; settings: in vivo studies (anticancer animal models); cited from earlier work
[1] = Plasma pharmacokinetics in continuous dosing period, cycle 1 day 15 steady state (HPLC-MS/MS); assay type: in vivo, human; settings: for Rac, accumulation ratio (mean±SD) / Vss/F (mean±SD): cycle 1 day 15
Protocol: Dose escalation was conducted using a modified Fibonacci 3 + 3 method (Supplementary Fig. […] At a given dose level, each patient received a single dose of senaparib followed by a 7-day washout period. They then entered a continuous dosing period to confirm the safety and PK profile, in which they received senaparib QD from day 1 to day 21 of each 3-week cycle. Progression to the next higher dose required approval from the Data Safety Monitoring Committee (DSMC) upon review of the safety and PK data of the previous dose. A 50-mg twice-daily (BID) dosing group was added (planned enrollment, n = 6 patients) based on a DSMC review of the safety, PK, and efficacy analysis of the completed QD dose groups in the phase I clinical trial of senaparib dose escalation in Australia (NCT03507543), which commenced prior to the start of this trial. Safety was assessed by recording the incidence of dose-limiting toxicities (DLTs), and the incidence, nature, severity (graded per National Cancer Institute Common Terminology Criteria for Adverse Events version 4.03 [NCI CTCAE v4.03][18]), and relatedness of treatment-emergent adverse events (TEAEs). DLTs were predefined toxicities (Supplementary Table S2) recorded over the 7 days following the single-dose administration of senaparib and during the first treatment cycle (day 1-day 21) for each dose group in the dose-escalation period only. […] Senaparib PK parameters were derived from blood samples collected from patients after the single administration, and at regular intervals during the first cycle of the dose-escalation and dose-expansion periods. Plasma concentrations of senaparib were determined using high-performance liquid chromatography-tandem mass spectrometry. […] There was no formal sample size calculation based on statistical hypothesis testing for this study; the planned enrolment was approximately 30-60 patients across the dose-escalation and dose-expansion cohorts. The actual number in the dose-escalation cohort was adjusted based on the number of dose cohorts required for the modified Fibonacci dose-escalation design and the determined MTD. Definitions for all analysis populations (safety, DLT, PK, and efficacy [intent-to-treat, ITT]) are provided in Supplementary Table S2. No statistical tests were performed; patient demographic and baseline characteristics, safety/tolerability, PK parameters, and efficacy were evaluated descriptively. ORR and DCR and their 95% CIs were calculated for each group using the exact probability method. Kaplan-Meier statistics were used to estimate DOR and PFS, and their 95% CIs for each dose group separately. Dose linearity was explored based on the single-dose data of area under the time-concentration curve (AUC) and maximum plasma concentration (Cmax) using the power model (Y = α × dose β) for the dose range 2-80 mg on a log-transformed scale. The following criterion was used to determine whether dose proportionality was met: if the (2-sided) 90% CI for β was wholly contained within the interval (1 + log(0.5)/log(r), 1 + log(2)/log(r)), then dose proportionality was supported. Here, r was defined as the ratio of the highest to lowest dose. All data analyses were carried out using SAS EG7.1 or higher or (for PK parameters) WinNonlin 7.0 or higher.

**Q.** What does the source list for O=C(c1cc(Cn2c(=O)[nH]c(=O)c3c(F)cccc32)ccc1F)N1CCN(c2ncccn2)CC1 [Senaparib]?
**A.** Potency relative to the PARP inhibitor olaparib (anticancer animal models): 20 fold; Rac, accumulation ratio (mean±SD) ([1]; 2 mg QD (n/N = 1/1)): 1.5; Vss/F (mean±SD) ([1]; 2 mg QD (n/N = 1/1)): 16.6 L; Rac, accumulation ratio (mean±SD) ([1]; 5 mg QD (n/N = 3/3)): 1.4±0.4; Vss/F (mean±SD) ([1]; 5 mg QD (n/N = 3/3)): 19.8 ± 7.7 L; Rac, accumulation ratio (mean±SD) ([1]; 10 mg QD (n/N = 3/3)): 1.4±0.2; Vss/F (mean±SD) ([1]; 10 mg QD (n/N = 3/3)): 24.9 ± 4.3 L; Rac, accumulation ratio (mean±SD) ([1]; 20 mg QD (n/N = 5/5)): 1.2±0.2; Vss/F (mean±SD) ([1]; 20 mg QD (n/N = 5/5)): 18.1 ± 2.5 L; Rac, accumulation ratio (mean±SD) ([1]; 40 mg QD (n/N = 3/3)): 1.1±0.1; Rac, accumulation ratio (mean±SD) ([1]; 50 mg BID (n/N = 4/4)): 1.8±0.4; Vss/F (mean±SD) ([1]; 50 mg BID (n/N = 4/4)): 39.9 ± 3.4 L; Rac, accumulation ratio (mean±SD) ([1]; 60 mg QD (n/N = 5/5)): 1.1±0.0; Vss/F (mean±SD) ([1]; 60 mg QD (n/N = 5/5)): 32.1 ± 13.0 L; Rac, accumulation ratio (mean±SD) ([1]; 80 mg QD (n/N = 9/9)): 1.2±0.1; Vss/F (mean±SD) ([1]; 80 mg QD (n/N = 9/9)): 38.8 ± 23.5 L; Rac, accumulation ratio (mean±SD) ([1]; 100 mg QD (n/N = 20/20)): 1.2±0.1; Vss/F (mean±SD) ([1]; 100 mg QD (n/N = 20/20)): 40.1 ± 21.9 L; Rac, accumulation ratio (mean±SD) ([1]; 120 mg QD (n/N = 4/4)): 1.2±0.2; Vss/F (mean±SD) ([1]; 120 mg QD (n/N = 4/4)): 1.3 ± 39.5 L; Accumulation ratio (Rac) ([1]; after BID administration): 1.8; Accumulation ratio (mean Rac) ([1]; after repeated QD administration): 1.1-1.5; AUC from time zero to 24 h post dose ([1]; human, in vivo): approximately 35 918 h*ng/mL; AUC from time zero to the last measurable concentration ([1]; human, in vivo): 33 827 h*ng/mL; AUC0-inf, mean±SD ([1]; human, in vivo, 2 mg): 4361.8 ng·h/mL; AUC0-t, mean±SD ([1]; human, in vivo, 2 mg): 2753.5 ng·h/mL; CLss/F (mean±SD) ([1]; human, in vivo, 2 mg): 0.7 L/h; Cmax, mean±SD ([1]; human, in vivo, 2 mg): 0.203 µg/mL; Tmax, median (range) ([1]; human, in vivo, 2 mg): 2.0 (2.0-2.0) h; t½, median (range) ([1]; human, in vivo, 2 mg): 16.0 (16.0-16.0) h; AUC0-inf, mean±SD ([1]; human, in vivo, 5 mg): 9655.4±11 022.2 h*ng/mL; AUC0-t, mean±SD ([1]; human, in vivo, 5 mg): 6013.7 ± 5649.0 ng·h/mL; CLss/F (mean±SD) ([1]; human, in vivo, 5 mg): 1.6 ± 1.3 L/h; Cmax, mean±SD ([1]; human, in vivo, 5 mg): 0.4707 ± 0.354 µg/mL; Tmax, median (range) ([1]; human, in vivo, 5 mg): 2.0 (2.0-2.0) h; t½, median (range) ([1]; human, in vivo, 5 mg): 10.3 (6.4-21.4) h; AUC0-inf, mean±SD ([1]; human, in vivo, 10 mg): 10 553.4±2657.5 h*ng/mL; AUC0-t, mean±SD ([1]; human, in vivo, 10 mg): 7506.4 ± 892.6 ng·h/mL; CLss/F (mean±SD) ([1]; human, in vivo, 10 mg): 1.3 ± 0.2 L/h; Cmax, mean±SD ([1]; human, in vivo, 10 mg): 0.5987 ± 0.0679 µg/mL; Tmax, median (range) ([1]; human, in vivo, 10 mg): 4.0 (2.0-4.0) h; t½, median (range) ([1]; human, in vivo, 10 mg): 13.2 (9.4-16.8) h; AUC0-inf, mean±SD ([1]; human, in vivo, 20 mg): 22 122.4±18 526.0 h*ng/mL; AUC0-t, mean±SD ([1]; human, in vivo, 20 mg): 16 213.5±9863.9 h*ng/mL; CLss/F (mean±SD) ([1]; human, in vivo, 20 mg): 1.6 ± 0.8 L/h; Cmax, mean±SD ([1]; human, in vivo, 20 mg): 1.4832 ± 0.4878 µg/mL; Tmax, median (range) ([1]; human, in vivo, 20 mg): 2.0 (1.8-2.0) h; t½, median (range) ([1]; human, in vivo, 20 mg): 9.4 (5.5-17.5) h; AUC0-inf, mean±SD ([1]; human, in vivo, 40 mg): 22 437.1±5342.9 h*ng/mL; AUC0-t, mean±SD ([1]; human, in vivo, 40 mg): 19 566.5±3285.1 h*ng/mL; CLss/F (mean±SD) ([1]; human, in vivo, 40 mg): 2.1 ± 0.4 L/h; Cmax, mean±SD ([1]; human, in vivo, 40 mg): 2.0133 ± 0.2802 µg/mL; Tmax, median (range) ([1]; human, in vivo, 40 mg): 1.9 (1.8-2.0) h; t½, median (range) ([1]; human, in vivo, 40 mg): 7.5 (5.5-9.2) h; AUC0-inf, mean±SD ([1]; human, in vivo, 50 mg): 38 418.9±19 776.1 h*ng/mL; AUC0-t, mean±SD ([1]; human, in vivo, 50 mg): 17 959.6±5287.0 h*ng/mL; CLss/F (mean±SD) ([1]; human, in vivo, 50 mg): 2.8 ± 0.8 L/h; Cmax, mean±SD ([1]; human, in vivo, 50 mg): 2.1525 ± 0.3543 µg/mL; Tmax, median (range) ([1]; human, in vivo, 50 mg): 2.0 (1.9-3.7) h; t½, median (range) ([1]; human, in vivo, 50 mg): 9.7 (7.8-15.2) h; AUC0-inf, mean±SD ([1]; human, in vivo, 60 mg): 19 189.5±10 074.3 h*ng/mL; AUC0-t, mean±SD ([1]; human, in vivo, 60 mg): 17 777.2±8739.1 h*ng/mL; CLss/F (mean±SD) ([1]; human, in vivo, 60 mg): 4.6 ± 3.6 L/h; Cmax, mean±SD ([1]; human, in vivo, 60 mg): 2.056 ± 0.975 µg/mL; Tmax, median (range) ([1]; human, in vivo, 60 mg): 2.0 (1.9-3.9) h; t½, median (range) ([1]; human, in vivo, 60 mg): 5.8 (3.4-7.7) h; AUC0-inf, mean±SD ([1]; human, in vivo, 80 mg): 48 747.0±33 189.7 h*ng/mL; AUC0-t, mean±SD ([1]; human, in vivo, 80 mg): 37 727.0±21 476.1 h*ng/mL; CLss/F (mean±SD) ([1]; human, in vivo, 80 mg): 2.9 ± 1.8 L/h; Cmax, mean±SD ([1]; human, in vivo, 80 mg): 3.4878 ± 1.6492 µg/mL; Tmax, median (range) ([1]; human, in vivo, 80 mg): 2.0 (1.9-3.8) h; t½, median (range) ([1]; human, in vivo, 80 mg): 9.7 (5.8-14.4) h; AUC0-inf, mean±SD ([1]; human, in vivo, 100 mg): 40 080.4±16 731.2 h*ng/mL; AUC0-t, mean±SD ([1]; human, in vivo, 100 mg): 33 827.1±12 273.6 h*ng/mL; CLss/F (mean±SD) ([1]; human, in vivo, 100 mg): 3.5 ± 1.8 L/h; Cmax, mean±SD ([1]; human, in vivo, 100 mg): 3.2125 ± 0.7651 µg/mL; Tmax, median (range) ([1]; human, in vivo, 100 mg): 1.9 (1.8-4.1) h; t½, median (range) ([1]; human, in vivo, 100 mg): 7.5 (5.3-16.1) h; AUC0-inf, mean±SD ([1]; human, in vivo, 120 mg): 87 799.1±11 6874.0 h*ng/mL; AUC0-t, mean±SD ([1]; human, in vivo, 120 mg): 62 737.2±74517.1 h*ng/mL; CLss/F (mean±SD) ([1]; human, in vivo, 120 mg): 4.3 ± 3.3 L/h; Cmax, mean±SD ([1]; human, in vivo, 120 mg): 5.1075 ± 4.8932 µg/mL; Tmax, median (range) ([1]; human, in vivo, 120 mg): 2.0 (1.9-2.1) h; t½, median (range) ([1]; human, in vivo, 120 mg): 8.8 (6.0-15.2) h

Reference: article PMC10712727, “Safety, Tolerability, and Pharmacokinetics of Senaparib, a Novel PARP1/2 Inhibitor, in Chinese Patients With Advanced Solid Tumors: A Phase I Trial” (The Oncologist, 2023)
